The target of test [1] is T1, human recombinant CB2 receptor (Homo sapiens, UniProt P34972). In words: CB2 binding, [3H]CP55,940 displacement, membranes from transfected COS cells. The settings on record: values in nM. On the set-up: purchased Perkin-Elmer; host or cells: COS cells.
The target of test [2] is T2, CB1 cannabinoid receptors (Mus musculus, UniProt P47746).
T2 construct: N18TG2 mouse neuroblastoma cells, which constitutively and selectively express the CB 1 cannabinoid receptors; endogenous in cells; host or cells: N18TG2 mouse neuroblastoma cells
The experiment in a line: Forskolin-induced cyclic AMP in N18TG2 neuroblastoma cells. It is filed as cell-based. As for the experimental part: (§1) After incubation, 800 μl of methanol were added, cells were extracted and cyclic AMP was determined with a cyclic AMP assay kit (Amersham, UK), in accordance with the supplier's recommendations.

The subject of test [3] is Anandamide Membrane Transporter (AMT). The experiment in a line: Anandamide uptake by RBL-2H3 cells. In kind it is cell-based. Conditions: anandamide uptake, read-out: AMT IC50. As for the experimental part: Assay for the Anandamide Membrane Transporter (AMT)
The effect of the compounds on the uptake of anandamide by the RBL-2H3 cells was studied as described (Di Marzo et al., 2002). Cells were incubated with [^14C]anandamide (4 μM) for 5 minutes at 37° C., in the presence or absence of varying concentrations of the inhibitors. Residual [^14C]anandamide in the incubation media after extraction with CHCl3/CH3OH (2:1 by volume) was used as a measure of the anandamide that was taken up by cells. Data are expressed as the concentration that produces 50% of inhibition of anandamide uptake (IC50) calculated with GraphPad.

The target in test [4] is T3, human recombinant CB1 receptor (Homo sapiens, UniProt P21554). In words: Forskolin-induced cAMP formation in CHO cells over-expressing hCB1. More on the design: expressed in transfected cells; host or cells: CHO cells. In kind it is cell-based. As to the method: as §1
In general terms: Cyclic AMP is a second messenger, typically raised through Gs and lowered through Gi signalling.

In test [5] the target is T4, CB1 receptors (Mus musculus, UniProt P47746).
T4 construct: using mouse brain membranes containing CB1 receptors; from tissue; host or cells: mouse brain membranes
In words: [35S]GTP-γ-S binding, mouse brain membranes. It is filed as biochemical. Conditions: mouse brain membranes. As for the experimental part:
These assays were performed as previously described (Thomas et al., 2005), using mouse brain membranes containing CB1 receptors or CHO cells stably over-expressing the human recombinant CB2 receptor (10 μg/ml protein), 0.7 nM [^35S]GTP-γ-S and 320 μM GDP, and a final assay volume of 250 μl. Results were compared to the potent CB1 and CB2 receptor agonist CP55940, purchased from Cayman Chemicals, Ann Arbour, Mich., USA.
In general terms: GTPγS resists hydrolysis and so accumulates on activated G proteins.

Test [6] addresses T3, human recombinant CB1 receptor. It is filed as binding. On the set-up: purchased Perkin-Elmer; host or cells: COS cells.
The target of test [7] is T5, Fatty Acid Amide Hydrolase (FAAH) (Rattus norvegicus, UniProt P97612).
T5 sequence (P97612 1-579): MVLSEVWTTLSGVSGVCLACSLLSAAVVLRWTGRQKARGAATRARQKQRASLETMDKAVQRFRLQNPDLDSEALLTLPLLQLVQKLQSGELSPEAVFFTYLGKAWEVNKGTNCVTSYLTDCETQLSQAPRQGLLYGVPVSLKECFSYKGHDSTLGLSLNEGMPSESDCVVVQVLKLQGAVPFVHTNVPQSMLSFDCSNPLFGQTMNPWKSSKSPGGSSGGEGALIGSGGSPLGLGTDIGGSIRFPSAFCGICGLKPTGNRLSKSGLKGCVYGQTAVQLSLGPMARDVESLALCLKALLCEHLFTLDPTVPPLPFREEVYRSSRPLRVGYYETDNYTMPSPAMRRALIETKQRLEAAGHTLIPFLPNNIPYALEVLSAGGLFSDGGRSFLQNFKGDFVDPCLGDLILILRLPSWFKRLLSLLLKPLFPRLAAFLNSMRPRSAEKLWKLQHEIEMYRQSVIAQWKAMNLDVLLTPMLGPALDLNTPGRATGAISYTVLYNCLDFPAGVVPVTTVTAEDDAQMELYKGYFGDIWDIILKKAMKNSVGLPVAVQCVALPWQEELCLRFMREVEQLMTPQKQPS
In words: biochemical. As for the experimental part:
Assay for Fatty Acid Amide Hydrolase (FAAH)
The effect of compounds on the enzymatic hydrolysis of [^14C]anandamide (6 μM) was studied using membranes prepared from rat brain incubated with increasing concentrations of compounds in 50 mM Tris-HCl, pH 9, for 30 minutes at 37° C. (Di Marzo et al., 2002). [^14C]ethanolamine produced from [^14C]anandamide hydrolysis was measured counting the scintillation of the aqueous phase after extraction of the incubation mixture with 2 volumes of CHCl3/CH3OH (2:1 by volume). […]

For test [8], the target named is T1, human recombinant CB2 receptor. In words: [35S]GTP-γ-S binding, CHO cells over-expressing hCB2. It is filed as biochemical. On the set-up: expressed in transfected cells; host or cells: CHO cells (stably over-expressing). An excerpt: Results were compared to the potent CB1 and CB2 receptor agonist CP55940, purchased from Cayman Chemicals, Ann Arbour, Mich., USA.

The target is the same in test [9]. The experiment in a line: Forskolin-induced cAMP formation in CHO cells over-expressing hCB2. In kind it is cell-based. More on the design: expressed in transfected cells; host or cells: CHO cells (stably over-expressing). As for the experimental part: as §1

In general, Ki refers to the equilibrium dissociation constant of an inhibitor or competing ligand from its target. For orientation: EC50 means the concentration that produces a half-maximal response. Broadly, the IC50 is the concentration at which inhibition is half-maximal.

Molecules are shown by their SMILES. Bounds are passed on as bounds.

T1 sequence (P34972 whole entry): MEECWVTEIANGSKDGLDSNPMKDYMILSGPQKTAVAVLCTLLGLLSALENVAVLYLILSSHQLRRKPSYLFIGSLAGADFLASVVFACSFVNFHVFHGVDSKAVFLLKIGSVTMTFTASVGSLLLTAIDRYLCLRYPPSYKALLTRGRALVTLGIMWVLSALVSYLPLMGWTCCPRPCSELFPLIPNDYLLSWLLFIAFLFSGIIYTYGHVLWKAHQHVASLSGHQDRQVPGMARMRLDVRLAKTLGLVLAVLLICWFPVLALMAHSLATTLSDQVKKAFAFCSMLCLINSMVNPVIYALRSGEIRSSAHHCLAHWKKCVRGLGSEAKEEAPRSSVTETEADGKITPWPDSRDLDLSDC
T3 sequence (P21554 whole entry): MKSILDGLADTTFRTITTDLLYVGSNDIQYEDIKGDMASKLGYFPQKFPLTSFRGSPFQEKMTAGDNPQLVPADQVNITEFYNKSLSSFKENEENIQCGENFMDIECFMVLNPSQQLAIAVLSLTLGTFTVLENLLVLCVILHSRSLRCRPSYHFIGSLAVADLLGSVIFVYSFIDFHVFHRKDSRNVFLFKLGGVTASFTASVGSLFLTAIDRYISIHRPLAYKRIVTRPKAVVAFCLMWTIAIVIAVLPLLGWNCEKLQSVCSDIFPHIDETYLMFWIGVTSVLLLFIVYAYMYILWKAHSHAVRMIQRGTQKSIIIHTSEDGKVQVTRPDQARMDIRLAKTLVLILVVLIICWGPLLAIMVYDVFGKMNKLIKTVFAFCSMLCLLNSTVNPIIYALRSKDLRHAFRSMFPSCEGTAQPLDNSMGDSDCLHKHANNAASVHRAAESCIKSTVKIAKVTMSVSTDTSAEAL
T4 sequence (P47746 whole entry): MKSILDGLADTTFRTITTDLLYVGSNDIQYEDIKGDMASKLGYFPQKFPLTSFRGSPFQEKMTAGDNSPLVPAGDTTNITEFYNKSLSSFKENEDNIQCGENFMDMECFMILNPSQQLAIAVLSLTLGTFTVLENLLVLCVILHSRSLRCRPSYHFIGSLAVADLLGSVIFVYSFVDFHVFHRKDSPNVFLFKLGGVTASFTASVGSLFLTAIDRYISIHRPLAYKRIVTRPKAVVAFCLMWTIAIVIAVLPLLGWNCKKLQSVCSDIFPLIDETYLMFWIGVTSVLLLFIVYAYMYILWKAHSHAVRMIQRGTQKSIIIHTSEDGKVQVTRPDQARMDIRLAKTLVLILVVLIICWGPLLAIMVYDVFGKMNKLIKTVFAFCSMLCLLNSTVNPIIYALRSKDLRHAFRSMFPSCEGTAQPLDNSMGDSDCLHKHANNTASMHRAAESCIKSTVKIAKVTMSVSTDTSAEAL
T2 sequence (P47746 whole entry): as above

On to `CCCCCc1cc(O)cc(OCCCCCCCCCCC(=O)NC2CC2)c1` [Compound 25, 11-(3-Hydroxy-5-pentyl-phenoxy)-undecanoic acid cyclopropylamide], for which the Ki in test [1] was found to be 13 nM; in [6], 5.2 nM. Further, the EC50 in test [2] is 13 nM; in test [4], 1600 nM; in [9], more than 10000 nM. In test [2] (N18TG2 cells, cAMP), the “functional behaviour at CB1 receptors” value is “inverse agonist/antagonist”. For the same molecule, the IC50 in test [3] is 17000 nM; in test [5] (read-out: IC50, stimulation of GTP-γ-S-binding), 150 nM; in [7] it was more than 10000 nM. Moreover, in test [4] (10 μM, forskolin-induced cAMP formation, CHO hCB1), the “hCB1 % effect with 10 μM” value is reported as 63%. Also, in test [4] (Test 1, CHO hCB1, inhibit forskolin-induced cAMP formation), the “functional behaviour at human recombinant CB1” value is “partial agonists”. For the same molecule, in test [5], the “functional behaviour in GTP-γ-S-binding” value is “agonist action”. In addition, the “antagonism of CP55940-induced stimulation of GTP-γ-S binding (in words)” value in test [8] (CHO hCB2) is on record as “block the effect of CP55940”. Further, the “effect on GTP-γ-S-binding (in words)” value in test [8] (CHO hCB2) is given as “no significant stimulation or inhibition”. Moreover, the “functional behaviour at CB2 receptors” value in [8] (Test 1 and Test 2, CHO hCB2) is “neutral (“silent”) antagonists”. In addition, the “hCB2 % effect with 10 μM” value in test [9] (10 μM, forskolin-induced cAMP formation, CHO hCB2) is 26%. Moreover, the “effect on forskolin-induced cAMP formation (in words)” value in [9] (CHO hCB2) is reported as “no significant effect”.

For the origin of these results see patent publication US20090043129A1 (priority 2005, published 2009).
